In brackets after ≈: the same amount, converted by molar mass. Activity calls are given as the source filed them. The calls are words filed in the database; no cut-off is given here.
Tests used:
[1] = biological target: Protein cereblon/DNA damage-binding protein 1 (Homo sapiens, UniProt Q96SW2)
[2] = Cytotoxicity against human PBMC assessed as reduction in cell viability
MV4-11 [3] = experiment: Antiproliferative activity against human MV4-11 cells assessed as reduction in cell viability measured after 3 days by CellTiter-Glo assay; type: functional, cell-based; conditions: for EC50: MV4-11, 72 h
MHHCALL4 = experiment: (§1) Antiproliferative activity against human MHHCALL4 cells harboring CRLF2-rearranged JAK2 mutation assessed as reduction in cell viability measured after 3 days by CellTiter-Glo assay; type: functional, cell-based; conditions: time 3.0 day
MB004 = experiment: (§2) Antiproliferative activity against human MB004 cells harboring TP53 mutation at codon 274 GTT-TGT assessed as reduction in cell viability measured after 3 days by CellTiter-Glo assay; type: functional, cell-based; conditions: time 3.0 day
HD-MB03 = experiment: (§3) Antiproliferative activity against human HD-MB03 cells assessed as reduction in cell viability measured after 3 days by CellTiter-Glo assay; type: functional, cell-based; conditions: time 3.0 day
[4] = biological target: Protein cereblon/Eukaryotic peptide chain release factor GTP-binding subunit ERF3A (Homo sapiens, UniProt P15170+Q96SW2); experiment: PROTAC activity at human CRBN/HiBiT-fused GSPT1 transfected in HEK293T cells assessed as induction of GSPT1 degradation measured after 4 hrs by Nano-Glo HiBiT lytic assay; type: cell-based
[5] = Aqueous solubility of the compound incubated for 18 hrs at pH 7.4 by UV spectrum based analysis; type: physicochemical
[6] = Apparent permeability of the compound in dog MDCKII-MDR1 cells measured after 1 hr; type: ADME, cell-based, Canis lupus familiaris; conditions: mdck-mdr1, 1 h
MV4-11 [7] = type: cell-based; conditions: Homo sapiens, dose 1-10 µM, time 24.0 hrs
Homo sapiens = organism: Homo sapiens; experiment: Induction of His-tagged CRBN/DDB1/biotin-tagged IKZF1 (unknown origin) ternary complex formation incubated for 90 mins by AlphaScreen assay
[8] = biological target: T1, Protein cereblon/Eukaryotic peptide chain release factor GTP-binding subunit ERF3A (Homo sapiens, UniProt Q96SW2+P15170); conditions: MV4-11, dose 100.0 nM, time 24.0 hrs
Target sequence in this assay (P15170 whole entry, looked up): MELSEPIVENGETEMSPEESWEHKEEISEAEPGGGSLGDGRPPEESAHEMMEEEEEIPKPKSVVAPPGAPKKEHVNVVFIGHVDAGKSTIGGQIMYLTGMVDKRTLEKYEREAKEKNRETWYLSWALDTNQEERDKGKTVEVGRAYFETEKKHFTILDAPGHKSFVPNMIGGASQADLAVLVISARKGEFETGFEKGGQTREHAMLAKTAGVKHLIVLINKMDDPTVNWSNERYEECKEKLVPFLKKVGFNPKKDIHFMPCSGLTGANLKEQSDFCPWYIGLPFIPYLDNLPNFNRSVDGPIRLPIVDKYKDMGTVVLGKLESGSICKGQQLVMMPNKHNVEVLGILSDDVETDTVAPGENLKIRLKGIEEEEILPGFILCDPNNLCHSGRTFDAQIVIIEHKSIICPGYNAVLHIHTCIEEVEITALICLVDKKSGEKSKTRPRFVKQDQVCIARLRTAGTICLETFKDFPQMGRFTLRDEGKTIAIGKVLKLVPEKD
Target sequence in this assay (Q96SW2 whole entry, looked up): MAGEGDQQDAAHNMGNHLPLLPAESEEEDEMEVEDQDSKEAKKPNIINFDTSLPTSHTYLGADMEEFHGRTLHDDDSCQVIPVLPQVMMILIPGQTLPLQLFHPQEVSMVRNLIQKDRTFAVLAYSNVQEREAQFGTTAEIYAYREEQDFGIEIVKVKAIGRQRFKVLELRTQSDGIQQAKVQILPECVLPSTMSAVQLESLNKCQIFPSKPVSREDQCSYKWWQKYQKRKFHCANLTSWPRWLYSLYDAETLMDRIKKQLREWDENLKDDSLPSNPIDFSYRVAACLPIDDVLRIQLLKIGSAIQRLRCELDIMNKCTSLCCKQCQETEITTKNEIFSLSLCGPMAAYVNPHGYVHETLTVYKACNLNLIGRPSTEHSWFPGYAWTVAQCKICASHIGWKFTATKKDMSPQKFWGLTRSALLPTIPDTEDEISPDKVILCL

MV4-11 [9] = experiment: Antiproliferative activity against human MV4-11 cells assessed as reduction in cell viability measured after 3 days in presence of CRBN ligand, lenalidomide by CellTiter-Glo assay; type: functional, cell-based; conditions: time 3.0 day
MV4-11 [10] = experiment: Antiproliferative activity against CRBN knock-out human MV4-11 cells assessed as reduction in cell viability measured after 3 days by CellTiter-Glo assay; type: functional, cell-based; conditions: time 3.0 day
MV4-11 [11] = experiment: PROTAC activity at CRBN/FLAG-tagged GSPT1 G575N mutant transfected in human MV4-11 cells assessed as induction of GSPT1 mutant degradation at 1 to 10 uM measured after 24 hrs by immunoblot analysis; type: cell-based; conditions: dose 1-10 µM
[12] = as §1; type: functional, cell-based; conditions: MHHCALL4, 72 h
MV4-11 [13] = experiment: Induction of apoptosis in human MV4-11 cells assessed as caspase activation at 10 to 100 nM measured after 24 hrs by luminescent Caspase-Glo assay; type: functional, cell-based; conditions: dose 10-100 nM
[14] = as §2; type: functional, cell-based; conditions: MB004, 72 h
MV4-11 [15] = experiment: Antiproliferative activity against human MV4-11 cells transfected with FLAG-tagged GSPT1 G575N mutant assessed as reduction in cell viability measured after 3 days by CellTiter-Glo assay; type: functional, cell-based; conditions: time 3.0 day
[16] = as §3; type: functional, cell-based; conditions: HD-MB03, 72 h
[17] = Half life in human liver microsomes measured upto 240 mins in presence of NADPH regenerating system by UHPLC-MS/MS analysis; type: ADME, Microsome; conditions: 4 h
MV4-11 [18] = experiment: Induction of apoptosis in human MV4-11 cells assessed as caspase activation at 10 to 100 nM measured after 8 hrs by luminescent Caspase-Glo assay; type: functional, cell-based; conditions: dose 10-100 nM
[19] = biological target: T1, Protein cereblon/Eukaryotic peptide chain release factor GTP-binding subunit ERF3A; conditions: mhhcall4
Target sequence in this assay (Q96SW2 whole entry): as the sequence (Q96SW2 whole entry, looked up) above
Target sequence in this assay (P15170 whole entry): as the sequence (P15170 whole entry, looked up) above

MV4-11 [20] = experiment: PROTAC activity at CRBN/GSPT2 in human MV4-11 cells assessed as induction of GSPT2 degradation at 1 uM measured after 4 hrs by tandem mass tag mass spectrometry analysis; type: cell-based
[21] = Protein binding in mouse plasma at 10 uM incubated for 4 hrs by UHPLC-MS/MS analysis; type: ADME, cell-free
[22] = Protein binding in human plasma at 10 uM incubated for 4 hrs by UHPLC-MS/MS analysis; type: ADME, cell-free
[23] = Half life in CD-1 mouse liver microsomes measured upto 240 mins in presence of NADPH regenerating system by UHPLC-MS/MS analysis; type: ADME, Microsome; conditions: 4 h
MV4-11 [24] = experiment: PROTAC activity at CRBN/SERPINF1 in human MV4-11 cells assessed as induction of SERPINF1degradation at 1 uM measured after 4 hrs by tandem mass tag mass spectrometry analysis; type: cell-based
[25] = biological target: T1, Protein cereblon/Eukaryotic peptide chain release factor GTP-binding subunit ERF3A; conditions: MV4-11, dose 100.0 nM, time 4.0 hrs
Target sequence in this assay (P15170 whole entry, looked up): as above
Target sequence in this assay (Q96SW2 whole entry, looked up): as the sequence (Q96SW2 whole entry, looked up) above

Protein cereblon/Eukaryotic peptide chain release factor GTP-binding subunit ERF3A (Homo sapiens, UniProt P15170+Q96SW2), sequence (Q96SW2 whole entry, the tested form may be a part): as the sequence (Q96SW2 whole entry, looked up) above
Protein cereblon/Eukaryotic peptide chain release factor GTP-binding subunit ERF3A (Homo sapiens, UniProt P15170+Q96SW2), sequence (P15170 whole entry, the tested form may be a part): as the sequence (P15170 whole entry, looked up) above
Protein cereblon/DNA damage-binding protein 1, sequence (Q96SW2 whole entry): as the sequence (Q96SW2 whole entry, looked up) above
Protein cereblon/DNA damage-binding protein 1, sequence (Q16531 whole entry, further chain): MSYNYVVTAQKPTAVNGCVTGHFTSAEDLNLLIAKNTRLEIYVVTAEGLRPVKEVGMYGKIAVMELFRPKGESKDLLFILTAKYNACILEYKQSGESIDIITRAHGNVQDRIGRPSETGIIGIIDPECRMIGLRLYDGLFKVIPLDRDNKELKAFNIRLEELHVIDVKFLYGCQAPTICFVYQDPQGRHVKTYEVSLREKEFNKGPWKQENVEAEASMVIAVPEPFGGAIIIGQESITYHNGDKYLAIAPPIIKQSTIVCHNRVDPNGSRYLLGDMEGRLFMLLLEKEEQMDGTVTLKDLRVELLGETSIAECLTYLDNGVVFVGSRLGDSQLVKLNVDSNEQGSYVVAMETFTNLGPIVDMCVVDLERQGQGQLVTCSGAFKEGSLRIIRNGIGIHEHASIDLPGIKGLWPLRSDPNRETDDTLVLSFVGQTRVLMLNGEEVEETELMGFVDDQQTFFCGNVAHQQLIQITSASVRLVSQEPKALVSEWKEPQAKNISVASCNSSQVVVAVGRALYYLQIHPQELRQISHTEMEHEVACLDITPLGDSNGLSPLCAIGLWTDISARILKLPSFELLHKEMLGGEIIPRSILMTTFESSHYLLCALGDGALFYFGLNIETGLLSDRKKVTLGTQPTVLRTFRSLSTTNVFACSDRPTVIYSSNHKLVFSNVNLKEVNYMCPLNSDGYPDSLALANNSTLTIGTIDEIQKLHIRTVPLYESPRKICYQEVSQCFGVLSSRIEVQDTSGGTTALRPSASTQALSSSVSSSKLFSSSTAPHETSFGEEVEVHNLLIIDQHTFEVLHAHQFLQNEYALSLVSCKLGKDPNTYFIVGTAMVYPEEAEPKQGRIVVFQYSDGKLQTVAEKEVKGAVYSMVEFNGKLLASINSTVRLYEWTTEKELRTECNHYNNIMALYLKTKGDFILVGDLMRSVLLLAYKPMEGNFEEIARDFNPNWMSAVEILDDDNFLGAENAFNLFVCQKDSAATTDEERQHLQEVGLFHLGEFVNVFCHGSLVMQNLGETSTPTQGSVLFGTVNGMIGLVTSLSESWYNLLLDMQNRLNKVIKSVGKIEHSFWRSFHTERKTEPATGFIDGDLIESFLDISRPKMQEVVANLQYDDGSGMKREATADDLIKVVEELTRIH

Cc1ccc(NC(=O)NCc2ccc3c(c2)CN(C2CCC(=O)NC2=O)C3=O)cc1Cl (stereo not given)
IC50 [1]: 18 nM | Activity [2]: Toxic | Activity (MV4-11 [3]; time 3.0 day): Active | Activity (MHHCALL4): Active | Activity (MB004): Active | Activity (HD-MB03): Active

O=C1CCC(N2C(=O)c3ccc(NS(=O)(=O)c4cccc(OC(F)(F)F)c4)cc3C2=O)C(=O)N1 (stereo not given)
IC50 [1]: 10 nM | EC50 (MV4-11 [3]): > 10 µM | EC50 [4]: > 10 µM | solubility at 18 h [5]: 64 µM (≈ 31.8 µg/mL) | Papp [6]: 40 nm/s

O=C1CCC(N2C(=O)c3ccc(NS(=O)(=O)c4ccccc4C(F)(F)F)cc3C2=O)C(=O)N1 (stereo not given)
IC50 [1]: 337 nM | EC50 (MV4-11 [3]): 0.089 µM | EC50 [4]: 0.052 µM | solubility at 18 h [5]: 66 µM (≈ 31.8 µg/mL) | Papp [6]: 14 nm/s

O=C1CCC(N2C(=O)c3ccc(NS(=O)(=O)c4cccc(Cl)c4)cc3C2=O)C(=O)N1 (stereo not given)
IC50 [1]: 23 nM | EC50 (MV4-11 [3]): > 10 µM | EC50 [4]: > 10 µM | solubility at 18 h [5]: 74 µM (≈ 33.1 µg/mL) | Papp [6]: 17 nm/s

Cc1c(Cl)cccc1S(=O)(=O)Nc1ccc2c(c1)C(=O)N(C1CCC(=O)NC1=O)C2=O (stereo not given)
Activity (MV4-11 [7]): inactive | Activity [2]: Toxic | Activity (Homo sapiens): inactive | Emax [8]: 90% | Activity (MV4-11 [9]): inactive | Activity (MV4-11 [10]): inactive | Activity (MV4-11 [11]): inactive | EC50 [12]: 4.4 nM | solubility at 18 h [5]: 64 µM (≈ 29.6 µg/mL) | Activity (MV4-11 [13]): Active | EC50 [14]: 1100 nM | Papp [6]: 36 nm/s | Activity (MV4-11 [15]): inactive | EC50 [16]: > 8 µM

Cc1ccccc1S(=O)(=O)Nc1ccc2c(c1)C(=O)N(C1CCC(=O)NC1=O)C2=O (stereo not given)
IC50 [1]: 11 nM | EC50 (MV4-11 [3]): 7.4 µM | EC50 [4]: 9.32 µM | solubility at 18 h [5]: 84 µM (≈ 35.9 µg/mL) | Papp [6]: 68 nm/s

O=C1CCC(N2C(=O)c3ccc(NS(=O)(=O)c4ccccc4)cc3C2=O)C(=O)N1 (stereo not given)
IC50 [1]: 3 nM | EC50 (MV4-11 [3]): > 10 µM | EC50 [4]: > 10 µM | solubility at 18 h [5]: 71 µM (≈ 29.4 µg/mL) | Papp [6]: 36 nm/s

COc1ccccc1S(=O)(=O)Nc1ccc2c(c1)C(=O)N(C1CCC(=O)NC1=O)C2=O (stereo not given)
IC50 [1]: 612 nM | EC50 (MV4-11 [3]): > 10 µM | EC50 [4]: > 10 µM | solubility at 18 h [5]: 85 µM (≈ 37.7 µg/mL) | Papp [6]: 6 nm/s

O=C1CCC(N2C(=O)c3ccc(NS(=O)(=O)c4ccc(OC(F)(F)F)cc4)cc3C2=O)C(=O)N1 (stereo not given)
IC50 [1]: 9 nM | EC50 (MV4-11 [3]): > 10 µM | EC50 [4]: > 10 µM | solubility at 18 h [5]: 76 µM (≈ 37.8 µg/mL) | Papp [6]: 11 nm/s

O=C1CCC(N2C(=O)c3ccc(NS(=O)(=O)c4ccccc4OC(F)(F)F)cc3C2=O)C(=O)N1 (stereo not given)
t1/2 [17]: 5.7 h | Activity (MV4-11 [18]): Active | Activity (MV4-11 [7]): inactive | DC50 [19]: Not Active | Activity [2]: Toxic | Activity (Homo sapiens): inactive | Activity (MV4-11 [20]): Active | PPB [21]: 99.3% | Activity (MV4-11 [9]): inactive | Activity (MV4-11 [10]): inactive | EC50 (MV4-11 [3]): 0.0015 µM | Activity (MV4-11 [11]): inactive | EC50 [12]: 0.4 nM | solubility at 18 h [5]: 67 µM (≈ 33.3 µg/mL) | PPB [22]: 99.1% | EC50 [14]: 336 nM | t1/2 [23]: 4.7 h | Papp [6]: 23 nm/s | Activity (MV4-11 [24]): Active | Emax [25]: 90% | Activity (MV4-11 [15]): inactive | EC50 [16]: 3.58 µM

O=C1CCC(N2Cc3cc(CNC(=O)C(F)(F)c4ccc(Cl)cc4)ccc3C2=O)C(=O)N1 (stereo not given)
Activity [2]: Toxic | EC50 (MV4-11 [3]): 0.062 µM | solubility at 18 h [5]: 77 µM (≈ 35.6 µg/mL) | Papp [6]: 49 nm/s

Cc1ccc(S(=O)(=O)Nc2ccc3c(c2)C(=O)N(C2CCC(=O)NC2=O)C3=O)cc1Cl (stereo not given)
IC50 [1]: 1 nM | EC50 (MV4-11 [3]): > 10 µM | EC50 [4]: > 10 µM | Papp [6]: 46 nm/s

— ChEMBL document CHEMBL5036322 (J Med Chem, 2021)
